Test results reported in publication PMC10892409, “Exploring Ocimum basilicum’s Secondary Metabolites: Inhibition and Molecular Docking against Rhynchophorus ferrugineus for Optimal Action” (Plants, 2024).
≈ marks a conversion by molar mass, not a printed value. Where “and” joins values, the source holds several entries; their conditions need not be identical. Equal values may be shown once. Read-outs that look alike come from different tables or passages of the source.

How the values were obtained:
ACPs [1] = assay: In vitro ACP inhibition, larval homogenate; format: biochemical, Rhynchophorus ferrugineus; details: fourth-instar larvae preparation
Protocol: (§1) The R. ferrugineus were homogenized larvae in a buffer (sodium phosphate, 40 mM, and pH 7.4); then, sodium chloride (10 mM dissolved in 1% (w/v) triton X-100) was added. During centrifugation (Sigma 3–30 KS), the homogenate was chilled to 4 °C and spun at a speed of 5000 rpm (20 min). The supernatant was either immediately put into action for an enzymatic test or frozen and kept at […] for later use. Each test was repeated three times. The protein content was determined using the same protocol employed by Lowry with modification using protein extract (100 µL) combined with an alkaline copper solution and a Folin–Ciocalteu phenol reagent (2 mL and 200 µL, respectively). The intensity of the resulting blue hue was evaluated during 30 min of incubation at 25 °C. Using an ELISA plate reader and a BSA standard curve, we could calculate the protein concentration by analyzing the absorbance at 600 nm (Multiskan SkyHigh Microplate Spectrophotometer, Thermo Fisher Scientific, Waltham, MA, USA).
(§2) Activities of ACPs and ALPs were evaluated using a modified version of the Asakura technique. The ACP test required incubating 100 μL of crude enzyme in a buffer of 650 μL of sodium acetate (pH: 5.0; 50 mM with ACPs) or 250 μL of Tris–HCl (at 50 mM; pH: 8.0 with ALPs) and p-nitrophenyl phosphate (5.5 mM). For 30 min; the various mixes were kept at 37 °C for incubation. Thereafter, 500 μL of NaOH (0.5 N) stopped the reaction. Using an ELISA plate reader, we determined the mixture’s 415 nm absorbance value (Multiskan SkyHigh Microplate Spectrophotometer). The ACP- and ALP-specific activity was estimated as OD 415/mg protein·h.

R. ferrugineus adults = assay: Antifeedant/insecticidal test on adults with treated sugarcane stem (probit LC50); format: in vivo, Rhynchophorus ferrugineus; details: after 1 day of treatment, 95% confidence limits in brackets
Protocol: (§3) Over the course of 40 days, an O. basilicum cell suspension was cultivated in this investigation, and then the extract was obtained. […] Long segments of sugarcane stem were employed in the insect breeding lab at King Faisal University’s Research and Training Center to raise adult R. ferrugineus larvae. For this experiment, we used a topical application technique with larvae stored at 4 °C for five minutes to test the extract’s activity. Using a hand-operated micro-applicator (Burkard Manufacturing Co., Ltd., Hertfordshire, UK, collected using a […] micro-syringe), extracts at escalating ratios (10 µL) were injected into the dorsal surface of the larvae (Ito Corp.; MS-N50, Shizuoka, Japan). Five larvae per box in a series of three replicates were fed on sugarcane stem pieces measuring 10 cm in length. The LD50 was calculated by measuring the percentage of dead larvae at 24, 48, 72, and 96 h following a topical application. The antifeedant impact was determined in adults by giving them 10 cm sugarcane stem segments cut in half longitudinally. Long strips of sugarcane stem (32 cm^2) were immersed in the previous serial extract and compound concentration (10 mL) for ten seconds before they were dried in ambient air using a plastic box. Each box included a new pair of larvae (a male and a female). Ten sets of each treatment were performed. Data on how well the subjects ate were evaluated at 24, 48, 72, and 96 h.
(§4) The tissue culture parameters were calculated quantitatively from three independent sets of samples, and the mean SD was used to describe the findings. Toxicity parameters were determined quantitatively using a 10-replicate sample, and means and standard deviations were used to present the data. The median dosage obtained from a dose–response regression was used to calculate the LC50 value. By analyzing the comparative growth rate vs. the crude extract logarithm using least squares regression, the range of LC50 was calculated with 95% confidence. A simple variance study was performed on the increased weight and enzymatic activity data (ANOVA). The distinction between the means was accomplished using the Student–Newman–Keuls (SNK) test. Additionally, SPSS version 25 was used to find p < 0.05 significant deviations from the mean.

AChE [2] = assay: In vivo AChE inhibition in treated fourth-instar larvae; parameters: species or system Rhynchophorus ferrugineus; details: fourth-instar larvae treated 24 h
Protocol: (§5) The enzyme AChE was assessed using a substrate of acetylthiocholine iodide and evaluated using 5,5′-dithiobis [2-nitrbenzoic acid] (DTNB), according to [94]. Each well contained a sodium phosphate buffer (140 µL) (pH: 8.0; 100 mM), DTNB (10 µL), extract (20 µL)/components at 1, 10, 50, 100, and 1000 µg/mL in DMSO and underwent 15 min of incubation at 25 °C. Acetylthiocholine (ATCh) was added to start the reaction (10 µL). The ATCh enzymatic hydrolysis produced a 5-thio-2-nitrobenzoate anion as a color (yellow) that was detected by measuring its wavelength, i.e., 412 nm, thereby allowing the researchers to track the rate of ATCh hydrolysis (15 min). Each response was performed three times on a microplate and examined using an ELISA plate reader to determine the 412 nm absorbance of the combination (Multiskan SkyHigh Microplate Spectrophotometer). The AChE-specific activity was measured as OD412/mg protein.h. based on observing the effect of raising the quantities of all of these compounds during the tests on the inhibition results, and the inhibitory concentration (IC50) was calculated. Then, a computer algorithm was used to determine the IC50 values (Version 9.01 of GraphPad Prism by Inc., 2020, San Diego, CA, USA).
(§6) Each enzyme’s in vivo impact was measured after treating larvae with an extract or pure chemicals. An inhibitor-free test combination served as a negative control. We determined the absorbance of the enzymes throughout a spectrum of wavelengths using a rapid reader for ELISA plates (Multiskan SkyHigh Microplate Spectrophotometer). Extracts and pure chemicals were used to treat R. ferrugineus larvae at previous serial concentrations, and their AChE, ACP, ALP, and GABA-T activity was tested in vivo using the methods outlined above. Larvae spent a day on leaf disks treated with chemicals or extract.

ACPs [3] = assay: In vivo ACP inhibition in treated fourth-instar larvae; parameters: species or system Rhynchophorus ferrugineus; details: fourth-instar larvae treated 24 h
Protocol: as §2, §6

AChE [4] = assay: In vitro AChE inhibition, larval homogenate (Ellman); format: biochemical, Rhynchophorus ferrugineus; details: fourth-instar larvae preparation
Protocol: as §1, §5

[5] = system: fourth-instar larvae of R. ferrugineus; assay: Topical application (contact) to fourth-instar larvae (probit LD50); format: in vivo, Rhynchophorus ferrugineus; details: after 1 day of treatment, 95% confidence limits in brackets
Protocol: as §3, §4

ALPs [6] = assay: In vivo ALP inhibition in treated fourth-instar larvae; parameters: species or system Rhynchophorus ferrugineus; details: fourth-instar larvae treated 24 h
Protocol: as §2, §6

ALPs [7] = assay: In vitro ALP inhibition, larval homogenate; format: biochemical, Rhynchophorus ferrugineus; details: for IC50 ALPs in vitro: fourth-instar larvae preparation
Protocol: as §1, §2

GABA-T [8] = biological target: T1, GABA-T (Rhynchophorus ferrugineus, UniProt A0A834I2E4); assay: In vivo GABA-T inhibition in treated fourth-instar larvae; details: fourth-instar larvae treated 24 h
Protocol: The enzyme crude extract (25 μL) added to a solution included Tris-HCl, α-ketoglutarate, 2-mercaptoethanol, β-NAD, and GABA (50, 2, 20, and 3, respectively) at a volume of 1525 μL. Finally, 30 μL of tritonx100 ((1%, (v/v)) was added to the prior combination. We used 30 min of incubation at between 25 and 30 °C. Additionally, we used an ELISA plate reader to determine the absorbance of the combination at 340 nm (Multiskan SkyHigh Microplate Spectrophotometer). Specific activities of GABA-T were measured as OD 340/mg of protein·h.

GABA-T [9] = biological target: T1, GABA-T; assay: In vitro GABA-T inhibition, larval homogenate; format: biochemical; details: fourth-instar larvae preparation, listed as salvianolic acid B
Protocol: The R. ferrugineus were homogenized larvae in a buffer (sodium phosphate, 40 mM, and pH 7.4); then, sodium chloride (10 mM dissolved in 1% (w/v) triton X-100) was added. During centrifugation (Sigma 3–30 KS), the homogenate was chilled to 4 °C and spun at a speed of 5000 rpm (20 min). The supernatant was either immediately put into action for an enzymatic test or frozen and kept at 20 °C for later use. […] The protein content was determined using the same protocol employed by Lowry with modification [93] using protein extract (100 µL) combined with an alkaline copper solution and a Folin–Ciocalteu phenol reagent (2 mL and 200 µL, respectively). The intensity of the resulting blue hue was evaluated during 30 min of incubation at 25 °C. Using an ELISA plate reader and a BSA standard curve, we could calculate the protein concentration by analyzing the absorbance at 600 nm (Multiskan SkyHigh Microplate Spectrophotometer, Thermo Fisher Scientific, Waltham, MA, USA).
The GABA-T activity was assessed with a modified version of the method published by [96]. The enzyme crude extract (25 μL) added to a solution included Tris-HCl, α-ketoglutarate, 2-mercaptoethanol, β-NAD, and GABA (50, 2, 20, and 3, respectively) at a volume of 1525 μL. […]

[10] = Rhynchophorus ferrugineus, 24 h, read-out: LC50

T1 sequence (A0A834I2E4 28-494): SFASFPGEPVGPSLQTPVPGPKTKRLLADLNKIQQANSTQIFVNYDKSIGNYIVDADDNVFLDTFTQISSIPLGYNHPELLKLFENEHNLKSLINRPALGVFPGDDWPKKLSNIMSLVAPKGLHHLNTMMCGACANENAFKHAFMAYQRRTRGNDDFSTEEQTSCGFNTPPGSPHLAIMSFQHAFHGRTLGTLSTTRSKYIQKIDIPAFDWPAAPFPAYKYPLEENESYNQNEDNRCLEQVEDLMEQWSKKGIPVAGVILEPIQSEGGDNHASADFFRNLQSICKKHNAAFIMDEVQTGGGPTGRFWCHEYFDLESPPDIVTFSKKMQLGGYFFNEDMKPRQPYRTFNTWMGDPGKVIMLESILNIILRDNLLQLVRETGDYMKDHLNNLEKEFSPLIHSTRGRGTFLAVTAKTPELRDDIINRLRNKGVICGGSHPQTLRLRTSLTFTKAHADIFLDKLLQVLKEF

With Salvianolic acid B the “IC50 ACPs in vitro” value (ACPs [1]; listed as salvianolic acid B) was 98.2 µg/mL, the LC50 (R. ferrugineus adults) was 1195 (1121–1278) µg/mL and the “IC50 AChE in vivo” value (AChE [2]) was 229.7 µg/mL. For the same compound, the “IC50 ACPs in vivo” value (ACPs [3]) was < 330 µg/mL and 182.3 µg/mL, the “IC50 AChE in vitro” value (AChE [4]) was 117 ± 1.08 µg/mL and the “IC50 AChE in vitro” value (AChE [4]; listed as salvianolic acid B) was 116.7 µg/mL. The LD50 [5] was 11.1 (10.1–12.18) µg/Larvae, the LD50 ([5]; listed as salvianolic acid B) was 11.1 µg/Larvae and the “IC50 ALPs in vivo” value (ALPs [6]) was 194.6 µg/mL. For the same compound, the IC50 ALP in vitro (ALPs [7]) was 105 µg/mL, the “IC50 ALPs in vitro” value (ALPs [7]; listed as salvianolic acid B) was < 200 µg/mL and the “IC50 GABA-T in vivo” value (GABA-T [8]) was 324.8 µg/mL. The “IC50 GABA-T in vitro” value (GABA-T [9]) was 197.2 µg/mL.

`O=C(C=Cc1ccc(O)c(O)c1)OC(Cc1ccc(O)c(O)c1)C(=O)OC1OC(CO)C(O)C(O)C1O` (stereo not drawn) [Rosmarinic acid glucoside] was tested, and the “IC50 ACPs in vitro” value (ACPs [1]; listed as rosmarinyl glucoside) was 123.6 µg/mL (≈ 237 µM), the LC50 (R. ferrugineus adults; [10]) was 1230 µg/mL (≈ 2350 µM) and the “IC50 AChE in vivo” value (AChE [2]) was 313 ± 0.85 µg/mL. The “IC50 AChE in vivo” value (AChE [2]; listed as rosmarinyl glucoside) was 312.7 µg/mL, the “IC50 ACPs in vivo” value (ACPs [3]; listed as rosmarinyl glucoside) was 318.8 µg/mL and the “IC50 AChE in vitro” value (AChE [4]) was 89 ± 0.85 µg/mL. The “IC50 AChE in vitro” value (AChE [4]; listed as rosmarinyl glucoside) was 89.4 µg/mL, the LD50 ([5]; listed as Rosmarinyl glucoside) was 17.2 (15.7–18.1) µg/Larvae and the LD50 ([5]; listed as rosmarinyl glucoside) was 17.2 µg/Larvae. For the same compound, the “IC50 ALPs in vivo” value (ALPs [6]; listed as rosmarinyl glucoside) was 387.4 µg/mL, the IC50 ALP in vitro (ALPs [7]) was 120 µg/mL (≈ 229 µM) and the “IC50 ALPs in vitro” value (ALPs [7]; listed as rosmarinyl glucoside) was < 200 µg/mL.

For `O=C(O)C[C@H](C(=O)O)[C@@H](O)C(=O)O` [Isocitric acid], the “IC50 ACPs in vitro” value (ACPs [1]) was 192.4 µg/mL (≈ 1000 µM), the LC50 (R. ferrugineus adults; [10]) was 1800 µg/mL (≈ 9340 µM) and the “IC50 AChE in vivo” value (AChE [2]) was 494 ± 1.76 µg/mL. For the same compound, the “IC50 AChE in vivo” value (AChE [2]; listed as isocitric acid) was 494.2 µg/mL, the “IC50 ACPs in vivo” value (ACPs [3]; listed as isocitric acid) was 415.6 µg/mL and the “IC50 AChE in vitro” value (AChE [4]) was 197.3 µg/mL and 197 ± 1.76 µg/mL. The LD50 [5] was 22.7 (21.4–23.8) µg/Larvae, the LD50 ([5]; listed as isocitric acid) was 22.7 µg/Larvae and the “IC50 ALPs in vivo” value (ALPs [6]; listed as isocitric acid) was 448.3 µg/mL. For the same compound, the IC50 ALP in vitro (ALPs [7]) was 195 µg/mL (≈ 1010 µM) and the “IC50 ALPs in vitro” value (ALPs [7]) was < 200 µg/mL.
